Series [1] has as its target T1, MD-2 (Homo sapiens, UniProt Q9Y6Y9).
T1 construct: purchased R&D Systems 1787-MD
T1 sequence (Q9Y6Y9 19-160): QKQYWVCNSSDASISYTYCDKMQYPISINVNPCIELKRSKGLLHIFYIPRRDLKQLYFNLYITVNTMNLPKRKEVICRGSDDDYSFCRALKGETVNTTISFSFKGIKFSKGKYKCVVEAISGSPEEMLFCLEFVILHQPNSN
The experiment in a line: SPR direct binding to immobilized MD-2 (Biacore T200). Particulars: MD-2 immobilized on CM5 chip. The method, then:
(§1) Biacore T200 (GE Healthcare, USA) was used for real-time binding interaction studies. […] For binding analyses, CM5 series chips (GE Healthcare) were activated and the reference flow-cell was blocked by 1 M ethanolamine (pH = 8.5). The ligand protein MD-2 dilution (10 ug/mL in 10 mM Acetate buffer pH 5) or HMGB1 (20 ug/mL in 10 mM acetate buffer pH = 4.5) or TLR4/MD2 complex (10 ug/mL in 10 mM acetate buffer pH 4.5) were subjected to the sample flow-cell at the flow rate of 10 uL/min until the surface Plasmon resonance reached 1000–2000 RU. Analytes (Folic acid analogues) diluted into 5 different concentrations were sequentially injected at a flow rate of 30uL/min for 60s or 120s (TLR4/MD-2). The dissociation time was set for 1 minute or 2 minutes (TLR4/MD-2). The equilibrium dissociation constant (KD) was obtained to evaluate the binding affinity by using the BIAEvaluation 2.0 software (GE Healthcare) supposing a 1:1 binding ratio. At least 3 independent experiments were performed.

In series [2] the target is T2, TLR4/MD-2 complex (Homo sapiens, UniProt O00206+Q9Y6Y9).
T2 construct: purchased R&D Systems 3146-TM-050
T2 sequence (O00206 24-631 limits assumed): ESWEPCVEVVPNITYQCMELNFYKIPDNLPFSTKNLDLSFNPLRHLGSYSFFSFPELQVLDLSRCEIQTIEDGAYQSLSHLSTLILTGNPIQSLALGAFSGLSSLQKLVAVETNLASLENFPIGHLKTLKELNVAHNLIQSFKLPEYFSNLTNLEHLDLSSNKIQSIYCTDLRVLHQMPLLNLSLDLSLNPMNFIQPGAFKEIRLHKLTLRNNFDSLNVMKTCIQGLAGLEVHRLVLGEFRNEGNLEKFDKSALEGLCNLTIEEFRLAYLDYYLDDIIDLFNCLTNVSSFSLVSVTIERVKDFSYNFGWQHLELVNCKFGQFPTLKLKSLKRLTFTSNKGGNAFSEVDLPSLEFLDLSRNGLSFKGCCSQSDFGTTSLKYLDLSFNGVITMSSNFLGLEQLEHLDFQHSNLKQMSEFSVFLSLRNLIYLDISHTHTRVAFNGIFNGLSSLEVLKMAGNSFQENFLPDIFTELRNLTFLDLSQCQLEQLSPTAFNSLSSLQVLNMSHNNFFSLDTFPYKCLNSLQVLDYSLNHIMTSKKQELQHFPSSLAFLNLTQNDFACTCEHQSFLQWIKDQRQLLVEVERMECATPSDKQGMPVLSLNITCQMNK
T2 sequence (Q9Y6Y9 17-160 limits assumed): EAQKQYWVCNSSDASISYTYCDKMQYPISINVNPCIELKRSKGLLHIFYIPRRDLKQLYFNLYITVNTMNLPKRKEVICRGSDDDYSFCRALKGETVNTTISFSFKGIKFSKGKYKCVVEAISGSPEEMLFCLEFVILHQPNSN
The experiment in a line: SPR direct binding to immobilized TLR4/MD-2 complex. Particulars: TLR4/MD-2 complex immobilized. As for the experimental part:
Biacore T200 (GE Healthcare, USA) was used for real-time binding interaction studies. Recombinant human TLR4/MD2 (R&D 3146-TM-050) complex protein and MD2 (R&D 1787-MD) protein were purchased from R&D Systems (Minneapolis, USA). For binding analyses, CM5 series chips (GE Healthcare) were activated and the reference flow-cell was blocked by 1 M ethanolamine (pH = 8.5). The ligand protein MD-2 dilution (10 ug/mL in 10 mM Acetate buffer pH 5) or HMGB1 (20 ug/mL in 10 mM acetate buffer pH = 4.5) or TLR4/MD2 complex (10 ug/mL in 10 mM acetate buffer pH 4.5) were subjected to the sample flow-cell at the flow rate of 10 uL/min until the surface Plasmon resonance reached 1000–2000 RU. Analytes (Folic acid analogues) diluted into 5 different concentrations were sequentially injected at a flow rate of 30uL/min for 60s or 120s (TLR4/MD-2). The dissociation time was set for 1 minute or 2 minutes (TLR4/MD-2). The equilibrium dissociation constant (KD) was obtained to evaluate the binding affinity by using the BIAEvaluation 2.0 software (GE Healthcare) supposing a 1:1 binding ratio. At least 3 independent experiments were performed.

In series [3] the test system is HMGB1. The series is described as follows: SPR direct binding to immobilized HMGB1. The method, then: as §1
Series [4] is described as follows: Stability of compound noted for the SPR experiment. Format: physicochemical. Particulars: excluded from the SPR experiment.

`Nc1nc(=O)c2nc(CNc3ccc(C(=O)N[C@@H](CCC(=O)O)C(=O)O)cc3)cnc2[nH]1` [Folic acid, folic acid]: in series [1], the “binding to MD-2 (in words)” value was “moderate binding”. Further, the values for the Kd in series [1] (1:1 binding) and in series [2] were 2.39 µM and 0.537 µM, respectively.
On to `Nc1nc2c(c(=O)[nH]1)N(C=O)C(CNc1ccc(C(=O)N[C@@H](CCC(=O)O)C(=O)O)cc1)CN2` (stereo partly drawn) [Leucovorin, leucovorin], for which binding in series [1] (1:1 binding) was characterised by a dissociation constant (Kd) of 15 µM.
In series [1] (1:1 binding), `C#CCC(Cc1cnc2nc(N)nc(N)c2n1)c1ccc(C(=O)N[C@@H](CCC(=O)O)C(=O)O)cc1` (stereo partly drawn) [Pralatrexate, pralatrexate] registered a Kd of 1.87 µM.
In the case of `CN(Cc1cnc2nc(N)nc(N)c2n1)c1ccc(C(=O)N[C@@H](CCC(=O)O)C(=O)O)cc1` [Methotrexate, methotrexate], the “binding to HMGB1” value in series [3] is given as “no binding”. Besides, in series [1], the Kd stood at 0.214 µM.
On to `Nc1nc(=O)c2c([nH]1)NCC(CNc1ccc(C(=O)NC(CCC(=O)O)C(=O)O)cc1)N2` (stereo not drawn) [Tetrahydrofolic acid, tetrahydrofolic acid], for which, in series [4], the stability result is given as “decomposition over time”.
The compound `Nc1nc(N)c2nc(CNc3ccc(C(=O)N[C@@H](CCC(=O)O)C(=O)O)cc3)cnc2n1` [Aminopterin, aminopterin] came in with a Kd in series [1] of 0.301 µM.

For the origin of these results see article PMC5814057, “Folic acid derived-P5779 mimetics regulate DAMP-mediated inflammation through disruption of HMGB1:TLR4:MD-2 axes” (PLoS ONE, 2018).
